The target of test [1] is T1, Flk-1 (Mus musculus, UniProt P35918, P25T). Nature of the test: [3H]thymidine incorporation (mitogenic response) in Flk-1-expressing NIH 3T3 cells. Type of test: cell-based. Set-up: the full-length Flk-1 cDNA was cloned into the mammalian expression vector PCMV; expressed in transfected cells. The note with it: 3T3 Flk-1 cell line. An excerpt:
The dominant-negative potential of Flk-1 TM was first examined by measuring its influence on the mitogenic response of Flk-1-expressing NIH 3T3 cells after superinfection with the Flk-1 TM virus.

In test [2] the target is T1, Flk-1. Nature of the test: VEGF-induced autophosphorylation of Flk-1 in COS cells. Type of test: cell-based. Set-up: expressed in transfected cells; dose or concentration left out as unconfirmed. The settings on record: COS1 cells transiently expressing Flk-1, stimulated with VEGF.
Test [3] deals with T1, Flk-1. The test is described as follows: 125I-VEGF competition binding to COS-1 cells transiently expressing Flk-1. The arrangement: the full-length Flk-1 cDNA was cloned into the mammalian expression vector PCMV; expressed in transfected cells; host or cells: COS-1 (transient, CMV-promoter vector). The settings on record: for competition with binding of 125I-VEGF: Flk-1 transfected COS-1 cells.

The target of test [4] is murine Flk-1 receptor (fetal liver kinase 1), full length, wild type, 180 kD (mouse) (UniProt P35918). The test is described as follows: cell-based or functional assay.
Test [5] has as its target T1, Flk-1. The test is described as follows: Cellular Flk-1 assay: VEGF-stimulated Flk-1 receptor autophosphorylation, antiphosphotyrosine Western blot. The arrangement: expressed in transfected cells; host or cells: NIH 3T3 (3T3 Flk-1 cell line). The settings on record: test concentration 100 μM, FIG. 17, NIH3T3 cells expressing Flk-1. Type of test: cell-based. On the procedure: FIG. 17. Inhibition of VEGF stipulatory activity of Flk-1. Test compounds and VEGF were co-incubated on cells expressing the Flk-1 receptor. The level of tyrosine phosphorylation was measured in a Western blot format using an antiphosphotyrosine antibody. […] (Compounds A7, A8, and A10 were toxic to these cells resulting in cell death.).
Organic compounds that modulate Flk-1 receptor mediated signal transduction can be assayed in a cellular Flk-1 assay wherein modulation of Flk-1 receptor autophosphorylation is measured using an antiphosphotyrosine antibody. In the example shown below, the results are analyzed using a Western blot of electrophoresed cell lysates. Levels of phosphorylation as be measured by other techniques known in the art.
NIH3T3 cells expressing high levels of Flk-1 were seeded in 12-well plates at 250,000 cells/well in DMEM+0.5% calf serum and incubated overnight at 37° C. plus or minus the test substance. […]
For the Western blot assay, forty microliters of saved supernatant per lane were loaded onto a 7.5% SDS-PAGE gel (10 lanes/gel, 1.5 mm thick) and run at 120 V until the dye reached the bottom of the gel. […] Protein bands were detected by soaking the membrane in ECL chemiluminescence system (Amersham Corp., prepared by mixing equal volumes of reagent 1 and 2) for 1 minute and then exposing the film for about 1-10 minutes.

For test [6], the target named is T2, murine Flk-1 receptor (fetal liver kinase 1), full length, wild type, 180 kD (mouse, UniProt P35918 20-1345).
T2 construct: Full-length Flk-1 cDNA in pCMV, transiently expressed in COS-1 cells; also stably expressed in NIH 3T3 cells; also called Flk-1 RTK; wild type Flk-1
Nature of the test: competition binding of unlabeled VEGF against 10 pM ^125I-VEGF on COS-1 cells expressing Flk-1, analysis by Munson and Rodbard. Here is the method:
FIGS. 9A and 9B. Flk-1 is a receptor for VEGF. […] The cells were lysed, Flk-1 receptor immunoprecipitated, and analyzed by polyacrylamide gel electrophoresis followed by autoradiography. Molecular size markers are indicated in kilodaltons. […] COS cells transiently expressing Flk-1 were removed from the plate and resuspended in binding medium (DMEM, 25 mM Hepes, 0.15% gelatin). […] The cells were washed twice with PBS/0.1% BSA and counted in a gamma counter.
Ligand binding experiments were performed as described previously (Schumacher, R. et al., 1991, J. Biol. Chem. 266: 19288-19295), COS-1 cells were grown in a 15-cm culture dish in DMEM for 48 h after transfection. Cells were then washed carefully with PBS and incubated with 5 ml of 25 mM EDTA in PBS for 10 min. Cells were then removed from the plate, washed once with binding buffer (DMEM, 25 mM HEPES, pH 7.5, 0.15% gelatin) and resuspended in 5 ml of binding buffer to determine the cell number. […] Data obtained were analyzed by the method of Munson, P. J. and Rodbard, D. (1980 Anal. Biochem. 107:220-235).

For test [7], the target named is T3, Flk-1 TM, truncated transdominant-negative Flk-1 receptor mutant (amino acids 1 through 806), 130 kD (mouse, UniProt P35918 20-806).
T3 construct: Lacks the 561 C-terminal amino acids of the intracellular kinase domain; keeps the transmembrane domain and 23 residues of the cytoplasmic domain; A BglII/HpaI linker with a stop codon (5' GTC ATG GAT CTT CGT TAA 3') may add or change a few C-terminal residues; Expressed in cells (COS, NIH 3T3); also called truncated Flk-1 receptor; pLXSN Flk-1 TM cl.1
The test is described as follows: ^125I-VEGF binding to 3T3 Flk-1/Flk-1 TM cells against the parental 3T3 Flk-1 cells.

Entries after “also recorded” stand apart in the source; their conditions may differ.

A word on the EC50: it is the concentration giving half of the maximal effect. A word on the Kd: it is the free concentration of one partner at which half of the binding sites on the other are occupied at equilibrium, for simple one-to-one binding.

T1 sequence (P35918 with tags, fused parts or gaps P25T limits assumed): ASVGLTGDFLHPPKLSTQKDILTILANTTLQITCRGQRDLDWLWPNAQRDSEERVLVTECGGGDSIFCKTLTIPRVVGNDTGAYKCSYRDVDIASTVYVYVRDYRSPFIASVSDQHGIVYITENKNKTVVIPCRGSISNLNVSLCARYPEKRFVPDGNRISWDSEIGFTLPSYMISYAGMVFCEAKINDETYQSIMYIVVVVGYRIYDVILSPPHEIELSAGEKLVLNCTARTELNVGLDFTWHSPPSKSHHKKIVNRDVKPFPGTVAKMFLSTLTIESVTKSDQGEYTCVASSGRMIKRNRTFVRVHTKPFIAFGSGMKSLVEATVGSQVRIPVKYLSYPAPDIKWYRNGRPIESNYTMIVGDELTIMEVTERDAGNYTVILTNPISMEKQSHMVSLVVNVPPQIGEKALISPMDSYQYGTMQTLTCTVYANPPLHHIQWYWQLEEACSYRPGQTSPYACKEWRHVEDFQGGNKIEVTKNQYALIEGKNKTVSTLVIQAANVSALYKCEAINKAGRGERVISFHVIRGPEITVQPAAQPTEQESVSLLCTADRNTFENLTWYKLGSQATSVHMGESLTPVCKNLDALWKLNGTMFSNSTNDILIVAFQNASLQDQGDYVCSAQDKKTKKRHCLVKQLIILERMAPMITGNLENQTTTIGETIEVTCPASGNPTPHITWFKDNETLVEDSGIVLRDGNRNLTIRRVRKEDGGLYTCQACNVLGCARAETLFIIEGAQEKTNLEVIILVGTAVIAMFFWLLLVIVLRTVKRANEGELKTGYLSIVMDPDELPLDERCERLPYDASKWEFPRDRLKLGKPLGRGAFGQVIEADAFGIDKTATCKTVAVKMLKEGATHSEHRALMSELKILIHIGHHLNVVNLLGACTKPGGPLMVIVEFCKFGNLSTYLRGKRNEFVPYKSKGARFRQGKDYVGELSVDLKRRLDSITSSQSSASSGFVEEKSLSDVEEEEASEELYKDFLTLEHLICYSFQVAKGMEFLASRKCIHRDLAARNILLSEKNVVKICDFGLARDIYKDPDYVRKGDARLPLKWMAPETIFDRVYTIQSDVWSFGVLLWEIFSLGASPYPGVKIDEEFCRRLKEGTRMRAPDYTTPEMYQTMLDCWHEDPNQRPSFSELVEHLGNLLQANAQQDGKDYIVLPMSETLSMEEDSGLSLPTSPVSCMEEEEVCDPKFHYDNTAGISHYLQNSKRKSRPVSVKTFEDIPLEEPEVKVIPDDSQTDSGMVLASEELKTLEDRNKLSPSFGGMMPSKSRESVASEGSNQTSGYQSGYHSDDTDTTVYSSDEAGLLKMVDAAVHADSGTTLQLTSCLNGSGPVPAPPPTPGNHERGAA
Sequence of murine Flk-1 receptor (fetal liver kinase 1), full length, wild type, 180 kD (mouse) (P35918 other isoform, or with tags, fused parts or gaps limits assumed): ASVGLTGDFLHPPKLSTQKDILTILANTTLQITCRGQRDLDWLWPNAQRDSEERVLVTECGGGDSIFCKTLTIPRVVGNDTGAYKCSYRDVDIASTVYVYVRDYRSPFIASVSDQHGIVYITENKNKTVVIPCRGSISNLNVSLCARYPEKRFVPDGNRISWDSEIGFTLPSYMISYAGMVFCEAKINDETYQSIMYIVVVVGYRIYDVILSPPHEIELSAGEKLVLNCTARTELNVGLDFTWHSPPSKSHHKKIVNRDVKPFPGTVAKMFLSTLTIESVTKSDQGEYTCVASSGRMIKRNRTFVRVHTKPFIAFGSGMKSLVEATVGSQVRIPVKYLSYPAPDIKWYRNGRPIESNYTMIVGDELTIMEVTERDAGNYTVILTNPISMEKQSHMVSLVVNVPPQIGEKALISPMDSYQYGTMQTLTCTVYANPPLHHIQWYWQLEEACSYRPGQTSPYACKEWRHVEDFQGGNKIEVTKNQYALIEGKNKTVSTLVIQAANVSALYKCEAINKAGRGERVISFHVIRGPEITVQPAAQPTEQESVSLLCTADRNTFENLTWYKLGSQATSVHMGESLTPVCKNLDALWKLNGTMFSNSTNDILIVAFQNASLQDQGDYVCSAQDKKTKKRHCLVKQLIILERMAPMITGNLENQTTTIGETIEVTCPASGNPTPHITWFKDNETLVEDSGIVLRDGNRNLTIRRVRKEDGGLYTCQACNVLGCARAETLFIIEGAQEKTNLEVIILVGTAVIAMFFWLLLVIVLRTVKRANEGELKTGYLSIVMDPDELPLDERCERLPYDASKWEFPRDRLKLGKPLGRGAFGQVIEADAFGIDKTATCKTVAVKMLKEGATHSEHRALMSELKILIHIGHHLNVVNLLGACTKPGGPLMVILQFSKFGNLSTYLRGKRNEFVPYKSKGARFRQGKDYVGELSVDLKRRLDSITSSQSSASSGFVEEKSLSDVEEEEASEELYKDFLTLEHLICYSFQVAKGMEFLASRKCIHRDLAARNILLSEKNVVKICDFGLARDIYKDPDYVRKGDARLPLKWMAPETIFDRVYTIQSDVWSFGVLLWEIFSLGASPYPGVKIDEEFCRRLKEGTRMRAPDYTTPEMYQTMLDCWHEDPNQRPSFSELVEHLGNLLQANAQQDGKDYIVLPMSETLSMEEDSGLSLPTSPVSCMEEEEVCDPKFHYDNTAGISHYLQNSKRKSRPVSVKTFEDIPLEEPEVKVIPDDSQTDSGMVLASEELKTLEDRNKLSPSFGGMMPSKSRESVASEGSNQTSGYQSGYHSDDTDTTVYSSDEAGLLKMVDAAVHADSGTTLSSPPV
T3 sequence (P35918 other isoform, or with tags, fused parts or gaps mutant): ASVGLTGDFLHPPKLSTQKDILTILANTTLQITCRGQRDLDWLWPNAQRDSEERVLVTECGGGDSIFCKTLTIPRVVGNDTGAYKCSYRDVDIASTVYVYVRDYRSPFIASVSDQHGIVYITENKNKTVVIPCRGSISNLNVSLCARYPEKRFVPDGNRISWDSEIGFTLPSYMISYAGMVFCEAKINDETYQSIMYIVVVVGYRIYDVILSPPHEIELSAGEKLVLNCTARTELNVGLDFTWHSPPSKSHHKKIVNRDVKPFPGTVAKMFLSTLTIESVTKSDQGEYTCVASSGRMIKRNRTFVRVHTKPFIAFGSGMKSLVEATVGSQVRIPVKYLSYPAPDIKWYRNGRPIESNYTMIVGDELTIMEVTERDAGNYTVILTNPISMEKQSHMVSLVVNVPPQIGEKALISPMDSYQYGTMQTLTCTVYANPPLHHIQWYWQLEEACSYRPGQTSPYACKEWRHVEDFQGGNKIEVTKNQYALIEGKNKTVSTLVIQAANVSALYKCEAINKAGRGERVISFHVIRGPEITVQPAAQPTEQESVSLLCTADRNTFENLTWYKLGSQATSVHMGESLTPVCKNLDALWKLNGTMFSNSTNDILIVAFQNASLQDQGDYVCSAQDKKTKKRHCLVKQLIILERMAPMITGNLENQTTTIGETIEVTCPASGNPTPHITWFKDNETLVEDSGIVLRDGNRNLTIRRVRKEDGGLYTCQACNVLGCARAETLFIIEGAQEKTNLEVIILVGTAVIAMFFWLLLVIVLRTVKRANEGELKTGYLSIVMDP
T2 sequence (P35918 other isoform, or with tags, fused parts or gaps limits assumed): as the sequence (P35918 other isoform, or with tags, fused parts or gaps limits assumed) above

As to “vascular endothelial growth factor [VEGF]”, in test [1], the EC50 was roughly 0.1 nM and the “concentration giving maximal stimulation of [3H] thymidine incorporation” value was 500 pM. The “tyrosine phosphorylation of the 180 kD Flk-1 receptor” value in test [2] is recorded as “significant induction”. In test [3] (Flk-1 expressing COS-1 cells, 125I-VEGF, 15° C., 90 min), this molecule yielded a Kd of roughly 0.1 nM. Further, the “competition with binding of 125I-VEGF” value in test [3] is “competed”. Turning to “VEGF (preparation not specified) used for stimulation of cells (ligand)”, in test [4], the [^3H] thymidine incorporation in the 3T3 Flk-1 cell line, EC50 was 0.1 nM and the [^3H] thymidine incorporation in the 3T3 Flk-1 cell line, concentration of maximal stimulation was 500 pM.

On to “PDGF-BB: growth factor used as specificity control in 125I-VEGF competition binding [reference compound]”, for which the “competition with binding of 125I-VEGF” value in test [3] is “did not compete”.

For `c1ccc(-c2cnc3cc4ccccc4cc3n2)cc1` [Compound A14], the “inhibition of VEGF-stimulated Flk-1 receptor phosphorylation” value in test [5] is given as “almost completely; also recorded: completely inhibited”.

B1: unlabeled VEGF (164 amino acid form), partially purified from conditioned media of COS-1 cells transiently expressing VEGF (ligand, UniProt Q00731-2 27-190, looked up)
chain: APTTEGEQKSHEVIKFMDVYQRSYCRPIETLVDIFQEYPDEIEYIFKPSCVPLMRCAGCCNDEALECVPTSESNITMQIMRIKPHQSQHIGEMSFLQHSRCECRPKKDRTKPENHCEPCSERRKHLFVQDPQTCKCSCKNTDSRCKARQLELNERTCRCDKPRR
notes: Partially purified on heparin columns; also called unlabeled ligand
As for B1, in test [6], the Kd is roughly 0.1 nM.

B2: ^125I-labeled recombinant human VEGF (ligand, UniProt P15692-4 27-191, looked up)
chain: APMAEGGGQNHHEVVKFMDVYQRSYCHPIETLVDIFQEYPDEIEYIFKPSCVPLMRCGGCCNDEGLECVPTEESNITMQIMRIKPHQGQHIGEMSFLQHNKCECRPKKDRARQENPCGPCSERRKHLFVQDPQTCKCSCKNTDSRCKARQLELNERTCRCDKPRR
modifications: radioiodinated (^125I) by the procedure of Hunter and Greenwood; positions not given
notes: also called iodinated VEGF
Regarding B2, the “fold increase of cell surface receptors against the parental 3T3 Flk-1 line” value in test [7] is 6 fold.
